Measured values taken from PMC7029660, “Functional Division Between the RecA1 and RecA2 Proteins in Myxococcus xanthus” (Frontiers in Microbiology, 2020).

Target: T1, RecA1 (Myxococcus xanthus, UniProt Q1DCC5)
T1 construct: gene recA; full-length gene in pET15b, expressed in E. coli BL21(DE3), Ni-NTA purified
T1 sequence (Q1DCC5 1-342): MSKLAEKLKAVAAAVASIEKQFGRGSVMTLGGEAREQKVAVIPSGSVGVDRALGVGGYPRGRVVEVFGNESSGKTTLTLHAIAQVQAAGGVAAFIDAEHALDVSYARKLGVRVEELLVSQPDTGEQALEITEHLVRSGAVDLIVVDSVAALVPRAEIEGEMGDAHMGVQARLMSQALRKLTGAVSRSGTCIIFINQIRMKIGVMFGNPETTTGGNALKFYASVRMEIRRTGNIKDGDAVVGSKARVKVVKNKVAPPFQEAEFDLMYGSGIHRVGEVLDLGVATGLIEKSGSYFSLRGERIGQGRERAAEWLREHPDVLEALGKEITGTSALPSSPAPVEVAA
Test: ATPase assay, released inorganic phosphate (kit)
Assay type: biochemical
Settings: 3 mM ATP, 5 mM MgCl2, 1 mM CaCl2, pH 7.4, 32 °C; with or without ssDNA or dsDNA

## Nc1ncnc2c1ncn2[C@@H]1O[C@H](COP(=O)(O)OP(=O)(O)OP(=O)(O)O)[C@@H](O)[C@H]1O [ATP]
  ATPase assay, released inorganic phosphate (kit): RecA1 and RecA2 both exhibited low ATPase activities
